Measurements published in patent US12612412B2, “Antiviral heterocyclic compounds” (Enanta Pharmaceuticals, Inc., priority 2021, dated 2026).

Assays:
[1] = tested on: HMPV clinical isolate TN/1501/A1; assay: HMPV antiviral assay Method-B (clinical isolate TN/1501/A1 in LLC-MK2 cells, ATP-Lite readout); assay type: cell-based, Human metapneumovirus (HMPV); conditions: human metapneumovirus, LLC-MK2, 144 h, hMPV WT1501 (clinical isolate TN/1501/A1), 6 days
Outline: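 EC50 derived by four-parameter logistic fit of percent cell health, measured by ATP-Lite luminescence and normalised to virus-only and uninfected-cell controls. Compounds run in duplicate from 10 μM top, 3-fold, 10 points. Infection: LLC-MK2 cells, MOI 0.014, 2 μg/mL final TPCK-trypsin, serum-free, 6 days at 37° C.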

[2] = tested on: genotype A, "Long" strain RSV; assay: RSV-A assay (CPE protection in Hep-2 cells, ATPlite readout); assay type: cell-based, Human respiratory syncytial virus (HRSV); conditions: human respiratory syncytial virus, RSV-A Long strain, MOI 0.1, CPE protection, read-out: Human RSV-A (“Long”) EC50
Outline: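 Hep-2 cells (8,000/well) were treated with 2-fold serial compound dilutions in duplicate and infected with RSV at MOI 0.1. After 5 days, protection from cytopathic effect was measured as cell viability by ATPlite luminescence, and EC50 values were derived.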

| Compound | EC50 [1] [nM] | EC50 [2] [nM] |
| --- | --- | --- |
| COc1cc(C(=O)NC[C@](O)(c2cc3c(c(-c4ccc(F)cc4)n2)OC[C@@]3(CF)C(N)=O)C2CC2)cc2cn(C3CC3)nc12 [Example 1063] | > 500 | > 200 |
| COc1cc(C(=O)NC[C@](O)(c2cc3c(c(-c4ccc(F)cc4)n2)OC[C@]3(CF)C(N)=O)C2CC2)cc2cn(C3CC3)nc12 [Example 1064] | < 500 | < 200 |
| COc1cc(C(=O)NC[C@](O)(c2cc3c(c(-c4ccc(F)cc4)n2)OC[C@@]3(C(N)=O)C2CC2)C(F)(F)F)cc2cc(C3CC3)nn12 [Example 1065] | < 500 | < 200 |
| COc1cc(C(=O)NC[C@](O)(c2cc3c(c(-c4ccc(F)cc4)n2)OC[C@]3(C(N)=O)C2CC2)C(F)(F)F)cc2cc(C3CC3)nn12 [Example 1066] | > 500 | > 200 |
| C[C@]1(C(N)=O)COc2c1cc([C@@](O)(CNC(=O)c1cc3c(cn1)OC(F)(F)O3)C(F)(F)F)nc2-c1ccc(F)cc1 [Example 1067] | > 500 | < 200 |
| COc1cc(C(=O)NC[C@](O)(c2cc3c(c(-c4ccc(F)cc4)n2)OC[C@]3(C)C(N)=O)C(F)(F)F)cc2cn(C(F)(F)F)nc12 [Example 1068] | < 500 | < 200 |
| COc1cc(C(=O)NC[C@](O)(c2cc3c(c(-c4ccc(F)cc4)n2)OC[C@]3(C)C(N)=O)C(F)(F)F)cc2cc(C(F)F)nnc12 [Example 1069] | > 500 | < 200 |
| COc1cc(C(=O)NC[C@](O)(c2cc3c(c(-c4ccc(F)c(Cl)c4F)n2)OC[C@]3(C)C(N)=O)C2CC2)cc2cc(C)c(Cl)nc12 [Example 1072] | < 500 | < 200 |
| COc1cc(C(=O)NC[C@](O)(c2cc3c(c(-c4ccc5c(c4)OC(F)(F)O5)n2)OC[C@]3(C)C(N)=O)C2CC2)cc2cc(C)c(Cl)nc12 [Example 1074] | < 500 | < 200 |
| COc1cc(C(=O)NC[C@](O)(c2cc3c(c(-c4ccc(F)c(C#N)c4F)n2)OC[C@]3(C)C(N)=O)C(F)(F)F)cc2cn(C3CC3)nc12 [Example 1080] | < 500 | < 200 |
| COc1cc(C(=O)NC[C@](O)(c2nc(-c3cc(Cl)c(F)cc3F)c3c(c2Cl)[C@@](C)(C(N)=O)CO3)C2CC2)cc2cn(C3CC3)nc12 [Example 1081] | < 500 | < 200 |
| Cc1cnc2c(Cl)cc(C(=O)NC[C@](O)(c3cc4c(c(-c5ccc(F)c(Br)c5F)n3)OC[C@]4(C)C(N)=O)C3CC3)cc2c1 [Example 1084] | < 500 | < 200 |
| COc1cc(C(=O)NC[C@](O)(c2cc3c(c(-c4cccc(Br)c4F)n2)OC[C@]3(C)C(N)=O)C2CC2)cc2cn(C3CC3)nc12 [Example 1085] | < 500 | < 200 |
| COc1cc(C(=O)NC[C@](O)(c2cc3c(c(-c4cccc(Br)c4F)n2)OC[C@]3(C)C(N)=O)C2CC2)cc2cn(C3(F)CC3)nc12 [Example 1087] | < 500 | < 200 |
| COc1cc(C(=O)NC[C@](O)(c2cc3c(c(-c4cc(Br)c(F)cc4F)n2)OC[C@]3(C)C(N)=O)C2CC2)cc2cn(C3CC3)nc12 [Example 1088] | < 500 | < 200 |
| COc1cc(C(=O)NC[C@](O)(c2cc3c(c(-c4cc(Br)c(F)cc4F)n2)OC[C@]3(C)C(N)=O)C2CC2)cc2cn(C3(F)CC3)nc12 [Example 1089] | < 500 | < 200 |
| COc1cc(C(=O)NC[C@](O)(c2cc3c(c(-c4ccc(F)cc4)n2)OC[C@]3(C)C(N)=O)C(F)(F)F)cc2cc(Br)c(Cl)nc12 [Example 1090] | > 500 | < 200 |
| Cc1cnc2c(Cl)cc(C(=O)NC[C@](O)(c3cc4c(c(-c5cccc(Br)c5F)n3)OC[C@]4(C)C(N)=O)C3CC3)cc2c1 [Example 1091] | < 500 | < 200 |
| COc1cc(C(=O)NC[C@](O)(c2cc3c(c(-c4cccc(Br)c4F)n2)OC[C@]3(C)C(N)=O)C2CC2)cc2cc(Cl)c(C)nc12 [Example 1092] | < 500 | < 200 |
| Cc1cnc2c(Cl)cc(C(=O)NC[C@](O)(c3cc4c(c(-c5cc(Br)c(F)cc5F)n3)OC[C@]4(C)C(N)=O)C3CC3)cc2c1 [Example 1093] | < 500 | < 200 |
| COc1cc(C(=O)NC[C@](O)(c2cc3c(c(-c4cc(Br)c(F)cc4F)n2)OC[C@]3(C)C(N)=O)C2CC2)cc2cc(Cl)c(C)nc12 [Example 1094] | < 500 | < 200 |
| C[C@]1(C(N)=O)COc2c1cc([C@@](O)(CNC(=O)c1ccc3nn(C4CC4)cc3c1)C1CC1)nc2-c1cc(Br)c(F)cc1F [Example 1095] | < 500 | < 200 |
| C[C@]1(C(N)=O)COc2c1cc([C@@](O)(CNC(=O)c1cc(Cl)c3nn(C4CC4)cc3c1)C1CC1)nc2-c1cc(Br)c(F)cc1F [Example 1096] | < 500 | < 200 |

| Compound | EC50 [1] [nM] | EC50 [2] [nM] |
| --- | --- | --- |
| COc1cc(C(=O)NC[C@](O)(c2cc3c(c(-c4cc(Br)c(F)cc4F)n2)OC[C@]3(C)C(N)=O)C2CC2)cc2cn(C(F)F)nc12 [Example 1097] | < 500 | < 200 |
| COc1cc(C(=O)NC[C@](O)(c2cc3c(c(-c4cccc(Br)c4F)n2)OC[C@]3(C)C(N)=O)C2CC2)cc2cn(C(F)F)nc12 [Example 1098] | < 500 | < 200 |
| C[C@]1(C(N)=O)COc2c1cc([C@@](O)(CNC(=O)c1cc(Cl)c3nn(C4CC4)cc3c1)C1CC1)nc2-c1cccc(Br)c1F [Example 1099] | < 500 | < 200 |
| C[C@]1(C(N)=O)COc2c1cc([C@@](O)(CNC(=O)c1ccc3nn(C4CC4)cc3c1)C1CC1)nc2-c1cccc(Br)c1F [Example 1100] | < 500 | < 200 |
| C[C@]1(C(N)=O)COc2c1cc([C@@](O)(CNC(=O)c1ccc3nn(C4CC4)cc3c1)C1CC1)nc2-c1ccc(F)c(Br)c1F [Example 1101] | < 500 | < 200 |
| Cc1cnc2c(Cl)cc(C(=O)NC[C@](O)(c3cc4c(c(-c5ccc(F)c(C(F)(F)F)c5)n3)OC[C@]4(C)C(N)=O)C3CC3)cc2c1 [Example 1102] | < 500 | < 200 |
| COc1cc(C(=O)NC[C@](O)(c2cc3c(c(-c4ccc(F)c(C(F)(F)F)c4)n2)OC[C@]3(C)C(N)=O)C2CC2)cc2cc(Cl)c(C)nc12 [Example 1103] | < 500 | < 200 |
| COc1cc(C(=O)NC[C@](O)(c2cc3c(c(-c4ccc(F)cc4)n2)OC[C@]3(C)C(N)=O)C(F)(F)F)cc2cc(Cl)c(Cl)nc12 [Example 1104] | > 500 | > 200 |
| COc1cc(C(=O)NC[C@](O)(c2cc3c(c(-c4ccc(F)cc4)n2)OC[C@]3(C)C(N)=O)C2CC2)cc2cc(Cl)c(Cl)nc12 [Example 1105] | > 500 | < 200 |
| Cc1cnc2c(OC(F)F)cc(C(=O)NC[C@](O)(c3cc4c(c(-c5cc(Br)c(F)cc5F)n3)OC[C@]4(C)C(N)=O)C3CC3)cc2c1 [Example 1106] | < 500 | < 200 |
| C[C@]1(C(N)=O)COc2c1cc([C@@](O)(CNC(=O)c1cc(Cl)c3nn(C4CC4)cc3c1)C(F)(F)F)nc2-c1cccc(F)c1Cl [Example 1119] | < 500 | < 200 |
| COc1cc(C(=O)NC[C@](O)(c2cc3c(c(-c4cccc(F)c4Cl)n2)OC[C@]3(C)C(N)=O)C(F)(F)F)cc2cn(C(F)F)nc12 [Example 1120] | < 500 | < 200 |
| COc1cc(C(=O)NC[C@](O)(c2cc3c(c(-c4cccc(F)c4Cl)n2)OC[C@]3(C)C(N)=O)C(F)(F)F)cc2cc(Br)cnc12 [Example 1121] | < 500 | < 200 |
| COc1cc(C(=O)NC[C@](O)(c2cc3c(c(-c4cccc(F)c4Cl)n2)OC[C@]3(C)C(N)=O)C2CC2)cc2cn(C3CC3)nc12 [Example 1122] | < 500 | < 200 |
| C[C@]1(C(N)=O)COc2c1cc([C@@](O)(CNC(=O)c1cc(Cl)c3nn(C4CC4)cc3c1)C1CC1)nc2-c1cccc(F)c1Cl [Example 1123] | < 500 | < 200 |
| COc1cc(C(=O)NC[C@](O)(c2cc3c(c(-c4cccc(F)c4Cl)n2)OC[C@]3(C)C(N)=O)C2CC2)cc2cc(Br)cnc12 [Example 1124] | < 500 | < 200 |
| COc1cc(C(=O)NC[C@](O)(c2cc3c(c(-c4ccc(F)cc4)n2)OC[C@]3(C)C(N)=O)C2CC2)cc2cc(Br)cnc12 [Example 1125] | < 500 | < 200 |
| COc1cc(C(=O)NC[C@](O)(c2cc3c(c(-c4cccc(F)c4Cl)n2)OC[C@]3(C)C(N)=O)C2CC2)cc2cc(Br)c(C)nc12 [Example 1126] | < 500 | < 200 |
| COc1cc(C(=O)NC[C@](O)(c2cc3c(c(-c4cc(Cl)c(F)cc4F)n2)OC[C@]3(C)C(N)=O)C2(F)CC2)cc2cc(Br)c(C)nc12 [Example 1127] | < 500 | < 200 |
| COc1cc(C(=O)NC[C@](O)(c2cc3c(c(-c4ccc(F)cc4)n2)OC[C@]3(C)C(N)=O)C2CC2)cc2cc(C(F)F)nnc12 [Example 1128] | > 500 | < 200 |
| C[C@]1(C(N)=O)COc2c1cc([C@@](O)(CNC(=O)c1cc(OC3CC3)c3ncc(C#N)cc3c1)C(F)(F)F)nc2-c1ccc(F)cc1 [Example 1133] | > 500 | < 200 |
| COc1cc(C(=O)NC[C@](O)(c2cc3c(c(-c4ccc(F)cc4)n2)OC[C@]3(C)C(N)=O)C(F)(F)F)cc2cc(C#N)cnc12 [Example 1134] | > 500 | < 200 |
| COc1cc(C(=O)NC[C@](O)(c2cc3c(c(-c4cc(F)c(F)cc4F)n2)OC[C@]3(C)C(N)=O)C(F)(F)F)cc2cn(C3CC3)nc12 [Example 1135] | < 500 | < 200 |
